Results: ChEMBL document CHEMBL4385617 (Bioorg Med Chem Lett, 2019)

Legend:
[1] = Inhibition of recombinant Escherichia coli OXA-48 assessed as reduction in breakdown of cephalosporin FC-5 in presence of 100 mM NaHCO3 by fluorescence method
[2] = Inhibition of recombinant bacterial NDM-1 expressed in Escherichia coli assessed as reduction in breakdown of cephalosporin FC-5 by fluorescence method; parameters: species or system Bacteria
[3] = Inhibition of recombinant bacterial VIM-1 expressed in Escherichia coli assessed as reduction in breakdown of cephalosporin FC-5 by fluorescence method; parameters: species or system Bacteria
[4] = Inhibition of recombinant bacterial KPC-2 expressed in Escherichia coli assessed as reduction in breakdown of cephalosporin FC-5 by fluorescence method; parameters: species or system Bacteria
[5] = Inhibition of recombinant bacterial IMP-1 expressed in Escherichia coli assessed as reduction in breakdown of cephalosporin FC-5 by fluorescence method; parameters: species or system Bacteria
[6] = Inhibition of recombinant bacterial CphA expressed in Escherichia coli assessed as reduction in hydrolysis of meropenem by UV spectrophotometeric analysis; parameters: species or system Bacteria
[7] = Inhibition of recombinant Stenotrophomonas maltophilia K279a L1 expressed in Escherichia coli using FC-5 as substrate by fluorescence method
[8] = biological target: Metallo-beta-lactamase type 2 (Klebsiella pneumoniae) (UniProt C7C422); assay: Inhibition of NDM1 in Klebsiella pneumoniae IR43 clinical isolate assessed as potentiation of meropenem-induced antibacterial activity by measuring meropenem MIC at 8 ug/ml by broth microdilution method (Rvb > 64 ug/ml)
Sequence of Metallo-beta-lactamase type 2 (Klebsiella pneumoniae) (C7C422 whole entry): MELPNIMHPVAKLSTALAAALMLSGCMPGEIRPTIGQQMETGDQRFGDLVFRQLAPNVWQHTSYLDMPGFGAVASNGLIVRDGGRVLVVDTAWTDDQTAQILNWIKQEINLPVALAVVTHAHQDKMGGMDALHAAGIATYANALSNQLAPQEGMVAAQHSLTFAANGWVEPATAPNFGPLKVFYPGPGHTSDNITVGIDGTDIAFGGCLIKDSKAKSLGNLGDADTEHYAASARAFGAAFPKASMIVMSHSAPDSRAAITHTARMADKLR

[9] = tested on: Escherichia coli; assay: Inhibition of NDM1 in Escherichia coli 91N clinical isolate assessed as potentiation of meropenem-induced antibacterial activity by measuring meropenem MIC at 8 ug/ml by broth microdilution method (Rvb > 64 ug/ml)
[10] = Inhibition of recombinant bacterial OXA-10 expressed in Escherichia coli assessed as reduction in breakdown of cephalosporin FC-5 by fluorescence method; parameters: species or system Bacteria
[11] = tested on: Escherichia coli; assay: Inhibition of NDM1 in Escherichia coli IR57 clinical isolate assessed as potentiation of meropenem-induced antibacterial activity by measuring meropenem MIC at 8 ug/ml by broth microdilution method (Rvb > 64 ug/ml)
[12] = tested on: Escherichia coli; assay: Inhibition of NDM1 in Escherichia coli S117 clinical isolate assessed as potentiation of meropenem-induced antibacterial activity by measuring meropenem MIC at 8 ug/ml by broth microdilution method (Rvb > 64 ug/ml)
[13] = biological target: Metallo-beta-lactamase type 2 (Klebsiella pneumoniae) (UniProt C7C422); assay: Inhibition of NDM1 in Klebsiella pneumoniae B64 clinical isolate assessed as potentiation of meropenem-induced antibacterial activity by measuring meropenem MIC at 8 ug/ml by broth microdilution method (Rvb > 64 ug/ml)
[14] = Inhibition of recombinant Escherichia coli OXA-10 assessed as reduction in breakdown of cephalosporin FC-5 in presence of 100 mM NaHCO3 by fluorescence method
[15] = biological target: Metallo-beta-lactamase type 2 (Klebsiella pneumoniae) (UniProt C7C422); assay: Inhibition of NDM1 in Klebsiella pneumoniae B68-1 clinical isolate assessed as potentiation of meropenem-induced antibacterial activity by measuring meropenem MIC at 8 ug/ml by broth microdilution method (Rvb > 64 ug/ml)
[16] = tested on: Bacteria; assay: Inhibition of bacterial expressed in Escherichia coli OXA-10 assessed as reduction in breakdown of cephalosporin FC-5 at 400 uM by fluorescence method

`NCc1ccc(C(=O)N[C@H]2Cc3cccc(C(=O)O)c3OB2O)cc1` gave an IC50 [1] of 2600 nM, an IC50 [2] of 29 nM and an IC50 [3] of 85 nM. It also gave an IC50 [4] of 30 nM, an IC50 [5] of 1000 nM and an IC50 [6] of over 100000 nM. For the same compound, the IC50 [7] was “Not Active”.
In the case of `O=C(O)C[C@@H]1CC[C@H](NC(=O)Cc2cccs2)B(O)O1` [VABORBACTAM], the MIC [8] is reported as over 64 µg/mL, the MIC [9] is reported as over 64 µg/mL and the IC50 [10] is reported as over 400000 nM. It also gave an MIC [11] of over 64 µg/mL, an MIC [12] of over 64 µg/mL and an MIC [13] of over 64 µg/mL. The IC50 [14] was over 400000 nM, the MIC [15] was over 64 µg/mL and the inhibition [16] was under 50%.
